Positions count from the first letter of the chain named. Values joined by “and” are separate entries in the source; they are usually repeats but may differ in a detail not shown here. Equal values may be shown once. Values belong to the compound of their own block, whether it stands above or below them.
Legend:
wild-type CysLT1R [1] = target: T1, wild-type CysLT1R (Homo sapiens, UniProt Q9Y271); experiment: IP1 production assay, antagonist mode, co-stimulation with EC80 LTD4; assay type: cell-based
T1 construct: expressed in transfected cells; host or cells: HEK293 (ATCC CRL-1573), transient transfection with Lipofectamine 3000
T1 sequence (Q9Y271 1-337): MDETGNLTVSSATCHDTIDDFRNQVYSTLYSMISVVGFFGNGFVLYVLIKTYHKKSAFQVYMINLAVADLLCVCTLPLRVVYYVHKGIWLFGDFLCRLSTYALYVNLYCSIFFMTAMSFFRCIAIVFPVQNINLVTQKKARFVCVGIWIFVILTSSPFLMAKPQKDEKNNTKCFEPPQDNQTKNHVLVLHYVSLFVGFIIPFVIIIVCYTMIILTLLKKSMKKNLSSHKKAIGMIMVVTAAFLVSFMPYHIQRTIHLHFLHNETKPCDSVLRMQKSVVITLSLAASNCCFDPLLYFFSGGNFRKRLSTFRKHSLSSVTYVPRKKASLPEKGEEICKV

wild-type CysLT2R [2] = target: T2, wild-type CysLT2R (Homo sapiens, UniProt Q9NS75); experiment: as above; assay type: cell-based
T2 construct: expressed in transfected cells; host or cells: HEK293 (ATCC CRL-1573), transient transfection with Lipofectamine 3000
T2 sequence (Q9NS75 1-346): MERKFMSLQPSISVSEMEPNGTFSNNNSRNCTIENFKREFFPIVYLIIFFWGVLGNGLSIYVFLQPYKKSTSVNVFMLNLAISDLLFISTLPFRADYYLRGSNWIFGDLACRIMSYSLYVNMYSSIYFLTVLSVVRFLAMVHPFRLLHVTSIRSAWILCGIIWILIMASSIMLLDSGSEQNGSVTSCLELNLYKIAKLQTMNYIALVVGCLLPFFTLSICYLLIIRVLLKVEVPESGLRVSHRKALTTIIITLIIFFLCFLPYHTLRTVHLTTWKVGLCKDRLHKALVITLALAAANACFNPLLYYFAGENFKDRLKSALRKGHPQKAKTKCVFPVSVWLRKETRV

wild-type CysLT1R [3] = target: T1, wild-type CysLT1R; experiment: IP1 production assay, antagonist mode, LTC4 (EC80) as agonist; assay type: cell-based; conditions: HEK293, wild-type CysLT1R, LTC4 at EC80
Protocol: (§1) All 139 selected compounds were screened in a functional assay measuring IP1 production as an indicator of Gαq activation. For this assay, we used the Cisbio IP-One kit as previously described. Human Embryonic Kidney (HEK) 293 cells (ATCC CRL-1573) between passages 5 and 25 were seeded onto poly-L-Lysine-coated 384-well plates at 20,000 cells/well and transfected with 30 ng of cDNA coding for the wild-type CysLT1R or CysLT2R receptors or for the CysLT2R mutant L129Q, using the Lipofectamine 3000 (Thermo Fisher Scientific) transfection agent. At 48 h post-transfection, the media was removed and the cells were washed with fresh Hank’s Balanced Salt Solution (HBSS). […] First, all 139 selected compounds were screened at a 30 µM concentration in both the agonist and antagonist mode in cells transiently expressing the wildtype CysLT1R or CysLT2R receptors. […] For CysLT1R, the compounds retained were BRI-12328, BRI-12334, BRI-12359, BRI-12410, BRI-12411, BRI-12417, BRI-12424, BRI-12435, BRI-12450, and BRI-12458; for CysLT2R, these were BRI-12328, BRI-12334, BRI-12359, BRI-12401, BRI-12402, BRI-12405, BRI-12410, BRI-413, BRI-12417, BRI-12424, BRI-426, BRI-427, BRI-450, BRI-453, BRI-454, BRI-458, and BRI-466. These hits were again tested in the antagonist mode with compound concentrations ranging from 1.56 µM to 100 µM, at 2-fold concentration intervals. The three best hits (BRI-12359, BRI-417, and BRI-424) were also tested using the LTC4 ligand (EC80 concentration) and in cells transiently expressing the constitutively active CysLT2R mutant L129Q. […] After compound stimulation, the cells were incubated for 1 h at 37 °C and stimulated with IP1-D2 and Ab-Crypt reagents in Lysis Buffer. The cells were then incubated at room temperature for an additional hour. The plate was read on a Tecan Genios Pro plate reader using a HTRF (homogeneous time-resolved fluorescence) filter set (λex = 320 nm, λem = 620 and 655 nm). Normalized data were plotted using either the three-parameter or four-parameter EC50/IC50 fits of GraphPad Prism 8 (San Diego). […] Data represent the means ± SEM of at least three independent experiments performed in quadruplicate. For the additional antagonist experiments performed with BRI-12359, we performed Schild analysis in order to determine pA2 values.

wild-type CysLT2R [4] = target: T2, wild-type CysLT2R; experiment: as above; assay type: cell-based; conditions: HEK293, wild-type CysLT2R; LTC4 at EC80
Protocol: as §1

CysLT2R mutant L129Q = target: T3, CysLT2R mutant L129Q (Homo sapiens, UniProt Q9NS75, L129Q); experiment: IP1 production assay, constitutively active mutant, direct compound stimulation (inverse agonism); assay type: cell-based; conditions: HEK293 transiently expressing CysLT2R L129Q
T3 construct: expressed in transfected cells; host or cells: HEK293 (ATCC CRL-1573), transient transfection with Lipofectamine 3000
T3 sequence (Q9NS75 1-346 L129Q): T2 sequence (Q9NS75 1-346) with L129Q
Protocol: as §1
This effect would be particularly interesting in the case of the L129Q CysLT2R mutant identified in uveal melanoma patients. We tested these three compounds in the functional IP1 assay using cells transiently expressing the L129Q CysLT2R mutant, directly stimulated with a range of compound concentrations (1.6 to 100 μM).

CysLT1R = conditions: cited from earlier work; for pAct: CysLT1R, ChEMBL value, ref 29 (ChEMBL)
CysLT2R = conditions: cited from earlier work; for pAct: CysLT2R, ChEMBL value, ref 29 (ChEMBL)

- Ki (wild-type CysLT1R [1]): 3.1 ± 0.63 µM
- remaining activity at 30 µM (wild-type CysLT1R [1]): 54.7%
- inhibition at 30 µM (wild-type CysLT1R [1]; HEK293, compound 30 µM, LTD4 at EC80, HEK293, wild-type CysLT1R, read-out: inhibition of LTD4-induced IP1 production, single-concentration screen): ≥ 50%
- Emax (wild-type CysLT1R [1]; HEK293, read-out: CysLT1R (LTD4) % Max Inhibition ± SEM): 100 ± 17%
- extent of inhibition of LTD4-mediated response at CysLT1R (in words) (wild-type CysLT1R [1]; antagonist mode, 1.5 to 100 µM): completely inhibit
- remaining activity at 30 µM (wild-type CysLT2R [2]): 74.4%
- inhibition at 30 µM (wild-type CysLT2R [2]; HEK293, compound 30 µM, LTD4 at EC80, HEK293, wild-type CysLT2R, read-out: inhibition of LTD4-induced IP1 production, single-concentration screen): < 50%
- Emax (wild-type CysLT2R [2]; HEK293, read-out: CysLT2R (LTD4) % Max Inhibition ± SEM): 54 ± 6%
- CysLT1R (LTC4) % Max Inhibition ± SEM (wild-type CysLT1R [3]): 83 ± 14%
- Ki (wild-type CysLT1R [3]; functional Ki by Cheng-Prusoff, read-out: CysLT1R (LTC4) Ki ± SEM): 0.7 µM and 0.68 µM
- CysLT2R (LTC4) % Max Inhibition ± SEM (wild-type CysLT2R [4]): 32 ± 5%
- % max inhibition ± SEM of constitutive IP1 accumulation (CysLT2R mutant L129Q; WT non-stimulated = 0%, L129Q non-stimulated = 100%): 59 ± 12%
- IC50 (CysLT2R mutant L129Q; compound 1.6 to 100 μM, no agonist, read-out: IC50 ± SEM, inhibition of constitutive IP1 accumulation): 30 to 40 µM and 38 µM
SMILES: NC(=O)c1ccccc1Oc1ccc(NC(=O)c2ccc3nc(C(F)(F)F)cn3c2)cc1 [BRI-12417]

SMILES: CCCCCC=CCC=CC=CC=C[C@@H](SC[C@H](N)C(=O)NCC(=O)O)[C@@H](O)CCCC(=O)O [CHEMBL288943, CCCCCC=CCC=CC=CC=C[C@H]([C@H](CCCC(O)=O)O)SC[C@@H](C(NCC(O)=O)=O)N]
- pAct (CysLT1R): 9.5

SMILES: CC(C)(O)c1ccc(CC[C@@H](SCC2(CC(=O)O)CC2)c2cccc(C=Cc3ccc4sc(Cl)c(Cl)c4n3)c2)cc1 [CHEMBL313187, CC(C)(c1ccc(CC[C@H](c2cccc(C=Cc3ccc4c(c(c(s4)[Cl])[Cl])n3)c2)SCC2(CC2)CC(O)=O)cc1)O]
- pAct (CysLT1R): 9.4

SMILES: O=C(O)c1cc(Cl)cc2c(=O)cc(-c3cccc(C=Cc4ccc5ccccc5n4)c3)oc12 [CHEMBL416769, C(=Cc1ccc2ccccc2n1)c1cccc(c1)C1=CC(c2cc(cc(C(O)=O)c2O1)[Cl])=O]
- pAct (CysLT1R): 8.0

SMILES: COc1cc(C(=O)NS(=O)(=O)c2ccccc2C)ccc1Cc1cn(C)c2ccc(NC(=O)NC3CCCC3)cc12 [CHEMBL431348]
- Kd (CysLT1R; activity of the ligand from ChEMBL, ref ChEMBL, read-out: Kd (CysLT1)): 0.00079 µM

SMILES: COc1ccc(NS(=O)(=O)C(F)(F)F)cc1C[C@H]1[C@@H](CO)c2cc(OCc3ccc4ccc(C)cc4n3)ccc2OC1(C)C [CHEMBL1214531, Cc1ccc2ccc(COc3ccc4c(c3)[C@H](CO)[C@H](Cc3cc(ccc3OC)NS(C(F)(F)F)(=O)=O)C(C)(C)O4)nc2c1]
- pAct (CysLT1R): 8.4

SMILES: O=C(O)c1ccc(OCCCc2ccc(OCCCCOc3ccccc3)cc2)c(C(=O)NC2CCCC(C(=O)O)C2)c1 (stereo not shown) [CHEMBL3342945]
- IC50 (CysLT2R; activity of the ligand from ChEMBL, ref ChEMBL, read-out: IC50 (CysLT2)): 0.053 µM

SMILES: O=C(O)CCCN1CC(C(=O)O)Oc2c(NC(=O)c3ccc(OCCCCCc4ccccc4)cc3)cccc21 (stereo not shown) [CHEMBL3342959, C(CCc1ccccc1)CCOc1ccc(cc1)C(Nc1cccc2c1OC(CN2CCCC(O)=O)C(O)=O)=O]
- pAct (CysLT2R): 9.2

SMILES: O=C(O)CCCN1C[C@@H](C(=O)O)Oc2c(NC(=O)c3ccc(OCCCCc4ccccc4)cc3)cccc21 [CHEMBL3342964, C(CCOc1ccc(cc1)C(Nc1cccc2c1O[C@@H](CN2CCCC(O)=O)C(O)=O)=O)Cc1ccccc1]
- pAct (CysLT2R): 9.1

SMILES: O=C(O)CCCN1CC(C(=O)O)Oc2c(C=Cc3ccc(OCCCCc4ccccc4)cc3)cccc21 (stereo not shown) [CHEMBL3401687, C(CCOc1ccc(C=Cc2cccc3c2OC(CN3CCCC(O)=O)C(O)=O)cc1)Cc1ccccc1]
- pAct (CysLT2R): 8.2

SMILES: O=C(O)CCCN1CC(c2nn[nH]n2)Oc2c(NC(=O)c3ccc(OCCCCc4ccccc4)cc3)cccc21 (stereo not shown) [CHEMBL3401689, C(CCOc1ccc(cc1)C(Nc1cccc2c1OC(CN2CCCC(O)=O)c1nn[nH]n1)=O)Cc1ccccc1]
- pAct (CysLT2R): 9.3

SMILES: O=C(O)CCCN1CC(C(=O)NS(=O)(=O)c2ccccc2)Oc2c(NC(=O)c3ccc(OCCCCc4ccccc4)cc3)cccc21 (stereo not shown) [CHEMBL3401691, C(CCOc1ccc(cc1)C(Nc1cccc2c1OC(CN2CCCC(O)=O)C(NS(c1ccccc1)(=O)=O)=O)=O)Cc1ccccc1]
- pAct (CysLT2R): 8.2

SMILES: O=C(O)CCCN1CC(c2nnn[nH]2)Oc2c(C=Cc3ccc(OCCCCc4ccccc4)cc3)cccc21 (stereo not shown) [CHEMBL3403186, C(CCOc1ccc(C=Cc2cccc3c2OC(CN3CCCC(O)=O)c2nnn[nH]2)cc1)Cc1ccccc1]
- pAct (CysLT1R): 9.2
- pAct (CysLT2R): 8.5

SMILES: O=C(O)CCCN1CC(C(=O)O)Oc2c(C=Cc3ccc(OCCCCOc4ccccc4)cc3)cccc21 (stereo not shown) [CHEMBL3403187, C(CC(O)=O)CN1CC(C(O)=O)Oc2c(C=Cc3ccc(cc3)OCCCCOc3ccccc3)cccc12]
- pAct (CysLT2R): 9.5

SMILES: O=C(O)CCCc1cn(CC(=O)O)c2c(C=Cc3ccc(OCCCCOc4ccccc4)cc3)cccc12 [CHEMBL3597522, C(CC(O)=O)Cc1cn(CC(O)=O)c2c(C=Cc3ccc(cc3)OCCCCOc3ccccc3)cccc12]
- pAct (CysLT2R): 8.2

SMILES: Cc1c(Cl)cccc1CCCCOc1ccc(C#Cc2cccc3c(CCCC(=O)O)c(C)n(CC(=O)O)c23)cc1 [CHEMBL3597618, Cc1c(CCCCOc2ccc(C#Cc3cccc4c(CCCC(O)=O)c(C)n(CC(O)=O)c34)cc2)cccc1[Cl]]
- pAct (CysLT1R): 9.7

SMILES: O=C(O)c1[nH]c2ccccc2c1C(=O)Nc1cccc(/C=C/c2ccc3ccc(Cl)cc3n2)c1 [CHEMBL3809164]
- IC50 (CysLT1R; activity of the ligand from ChEMBL, ref ChEMBL, read-out: IC50 (CysLT1)): 0.035 µM

SMILES: COc1cccc2c(C=CC(=O)Nc3cccc(C=Cc4ccc5ccc(Cl)cc5n4)c3)c(C(=O)O)[nH]c12 [CHEMBL3810210, COc1cccc2c(C=CC(Nc3cccc(C=Cc4ccc5ccc(cc5n4)[Cl])c3)=O)c(C(O)=O)[nH]c12]
- pAct (CysLT1R): 8.2

Source: article PMC7761830, “Structure-Based Virtual Screening of Ultra-Large Library Yields Potent Antagonists for a Lipid GPCR” (Biomolecules, 2020)
